Test results published in US20230107642A1 (Erasca, Inc., priority 2020, published 2023).

Target: T1, K-Ras G12C (Homo sapiens, UniProt P01116, G12C)
T1 construct: This protein contained 188 amino acids in total, including an N-terminal 6-Histidine tag; made in house; host or cells: E. coli BL21
Test: CAF assay (% CAF; method in Example 7, not in this part)
Assay type: binding

Row | % CAF @ 10 uM, 1h (10 uM compound, 1 h incubation) [%] | % CAF @ 10 uM, 1h (10 uM, 1 h, Table 3) [%] | Compound | further results
1 | 83.6 | – | C=CC(=O)N1C[C@H](C)N(c2nc(=O)n3c4c(c(-c5ccc(F)cc5F)c(C(F)(F)F)cc24)SC[C@@H]3CN2CCN(CC(F)F)CC2)C[C@H]1C [Example 562, (3S)-7-((2S,5R)-4-acryloyl-2,5-dimethylpiperazin-1-yl)-3-((4-(2,2-difluoroethyl)piperazin-1-yl)methyl)-10-(2,4-difluorophenyl)-9-(trifluoromethyl)-2H-[1,4]thiazino[2,3,4-ij]quinazolin-5(3H)-one] | –
2 | 80.5 | – | C=CC(=O)N1[C@H](C)CN(c2nc(=O)n3c4c(c(-c5ccc(F)cc5F)c(C(F)(F)F)cc24)SC[C@@H]3CN2CCC3(CC2)COC3)C[C@@H]1C (atropisomer, axis not shown) [Example 576, (3S,10S)-3-(2-oxa-7-azaspiro[3.5]nonan-7-ylmethyl)-7-((3S,5R)-4-acryloyl-3,5-dimethylpiperazin-1-yl)-10-(2,4-difluorophenyl)-9-(trifluoromethyl)-2H-[1,4]thiazino[2,3,4-ij]quinazolin-5(3H)-one] | –
3 | 72.3 | – | C=CC(=O)N1CCN(c2nc(=O)n3c4c(c(-c5ccc(F)cc5F)c(Cl)cc24)SC[C@@H]3CN2CCC3(CC2)COC3)[C@@H](C)C1 [Example 472, (3S)-3-(2-oxa-7-azaspiro[3.5]nonan-7-ylmethyl)-7-((S)-4-acryloyl-2-methylpiperazin-1-yl)-9-chloro-10-(2,4-difluorophenyl)-2H-[1,4]thiazino[2,3,4-ij]quinazolin-5(3H)-one] | –
4 | – | 65.5 | C=CC(=O)N1CCN(c2nc(=O)n3c4c(c(-c5ccc(F)cc5F)c(Cl)cc24)SCC3)CC1=O [Example 166, 7-(4-acryloyl-3-oxopiperazin-1-yl)-9-chloro-10-(2,4-difluorophenyl)-2,3-dihydro-5H-[1,4]thiazino[2,3,4-ij]quinazolin-5-one] | –
5 | 61 | – | C=CC(=O)N1CCN(c2nc(=O)n3c4c(c(-c5ccc(F)cc5F)c(C(F)(F)F)cc24)SCCC3)[C@@H](C)C1 [Example 450, 8-((S)-4-acryloyl-2-methylpiperazin-1-yl)-11-(2,4-difluorophenyl)-10-(trifluoromethyl)-3,4-dihydro-2H,6H-[1,4]thiazepino[2,3,4-ij]quinazolin-6-one] | –
6 | 53.8 | – | C=CC(=O)N1C[C@H](C)N(c2nc(=O)n3c4c(c(-c5cc(F)c(F)cc5F)c(Cl)cc24)SC[C@@H]3CC2CCN(CC(F)F)CC2)C[C@H]1C [Example 476, (3S)-7-((2S,5R)-4-acryloyl-2,5-dimethylpiperazin-1-yl)-9-chloro-3-((1-(2,2-difluoroethyl)piperidin-4-yl)methyl)-10-(2,4,5-trifluorophenyl)-2H-[1,4]thiazino[2,3,4-ij]quinazolin-5(3H)-one] | –
7 | 74.8 | – | C=CC(=O)N1[C@H](C)CN(c2nc(=O)n3c4c(c(-c5ccc(F)cc5F)c(C(F)(F)F)cc24)SC[C@@H]3CN2CCC3(CC2)COC3)C[C@@H]1C (atropisomer, axis not shown) [Example 577, (3S)-3-(2-oxa-7-azaspiro[3.5]nonan-7-ylmethyl)-7-((3S,5R)-4-acryloyl-3,5-dimethylpiperazin-1-yl)-10-(2,4-difluorophenyl)-9-(trifluoromethyl)-2H-[1,4]thiazino[2,3,4-ij]quinazolin-5(3H)-one] | –
8 | 96.9 | – | C=CC(=O)N1CCN(c2nc(=O)n3c4c(c(-c5ccc(F)cc5F)c(C(F)(F)F)cc24)SC[C@@H]3COC)CC1 (atropisomer, axis not shown) [Example 579, (3S,10S)-7-(4-acryloylpiperazin-1-yl)-10-(2,4-difluorophenyl)-3-(methoxymethyl)-9-(trifluoromethyl)-2,3-dihydro-5H-[1,4]thiazino[2,3,4-ij]quinazolin-5-one] | –
9 | – | 28.7 | C=CC(=O)N1CC2CCC1CN2c1nc(=O)n2c3c(c(-c4ccc(F)cc4F)c(Cl)cc13)SCC2 (centres unmarked) [Example 181, 7-(5-acryloyl-2,5-diazabicyclo[2.2.2]octan-2-yl)-9-chloro-10-(2,4-difluorophenyl)-2,3-dihydro-5H-[1,4]thiazino[2,3,4-ij]quinazolin-5-one] | –
10 | 95 | – | C=CC(=O)N1[C@H](C)CN(c2nc(=O)n3c4c(c(-c5ccc(F)cc5F)c(Cl)cc24)SC[C@@H](OC)C3)C[C@@H]1C [Example 505, (3S)-8-((3S,5R)-4-acryloyl-3,5-dimethylpiperazin-1-yl)-10-chloro-11-(2,4-difluorophenyl)-3-methoxy-3,4-dihydro-2H,6H-[1,4]thiazepino[2,3,4-ij]quinazolin-6-one] | –
11 | – | 6.7 | C=C(F)C(=O)N1CCN(c2nc(=O)n3c4c(c(-c5ccc(Cl)c(F)c5)c(Cl)cc24)SCC3)[C@@H](C)C1 [Example 78, (S)-9-chloro-10-(4-chloro-3-fluorophenyl)-7-(4-(2-fluoroacryloyl)-2-methylpiperazin-1-yl)-2,3-dihydro-5H-[1,4]thiazino[2,3,4-ij]quinazolin-3-one] | –
12 | – | 90.6 | C=CC(=O)N1CCN(c2nc(=O)n3c4c(c(-c5ccc(F)cc5F)c(Cl)cc24)SCC3)C[C@@H]1C [Example 140, 7-((S)-4-acryloyl-3-methylpiperazin-1-yl)-9-chloro-10-(2,4-difluorophenyl)-2,3-dihydro-5H-[1,4]thiazino[2,3,4-ij]quinazolin-5-one] | –
13 | – | 48.3 | C=CC(=O)N1CCN(c2nc(=O)n3c4c(c(-c5ccc(F)cc5F)c(Cl)cc24)SCC3)C2CN(S(C)(=O)=O)CC21 (centres unmarked) [Example 118, 7-(4-acryloyl-6-(methylsulfonyl)octahydro-1H-pyrrolo[3,4-b]pyrazin-1-yl)-9-chloro-10-(2,4-difluorophenyl)-2,3-dihydro-5H-[1,4]thiazino[2,3,4-ij]quinazolin-5-one] | –
14 | 95 | – | C=CC(=O)N1CCN(c2nc(=O)n3c4c(c(-c5cc(Cl)c(F)cc5F)c(Cl)cc24)SC[C@@H](OC)C3)[C@@H](C)C1 [Example 529, (3S)-8-((S)-4-acryloyl-2-methylpiperazin-1-yl)-10-chloro-11-(5-chloro-2,4-difluorophenyl)-3-methoxy-3,4-dihydro-2H,6H-[1,4]thiazepino[2,3,4-ij]quinazolin-6-one] | –
15 | 79.6 | – | C=CC(=O)N1CCN(c2nc(=O)n3c4c(c(-c5ccc(F)cc5)c(C(F)(F)F)cc24)SC[C@@H]3CC2CCN(CC(F)F)CC2)[C@@H](C)C1 [Example 428, (S)-7-((S)-4-acryloyl-2-methylpiperazin-1-yl)-3-((1-(2,2-difluoroethyl)piperidin-4-yl)methyl)-10-(4-fluorophenyl)-9-(trifluoromethyl)-2H-[1,4]thiazino[2,3,4-ij]quinazolin-5(3H)-one] | –
16 | 93.6 | – | C=CC(=O)N1CCN(c2nc(=O)n3c4c(c(-c5cc(Cl)c(F)cc5F)c(C(F)(F)F)cc24)SC[C@@H]3COC)CC1 [Example 572, (3S)-7-(4-acryloylpiperazin-1-yl)-10-(5-chloro-2,4-difluorophenyl)-3-(methoxymethyl)-9-(trifluoromethyl)-2H-[1,4]thiazino[2,3,4-ij]quinazolin-5(3H)-one] | –
17 | – | 80.9 | C=CC(=O)N1CCN(c2nc(=O)n3c4c(c(-c5ccc(F)cc5F)c(Cl)cc24)SCC3CN2CCN(CC)CC2)[C@@H](C)C1 (stereo partly drawn) [Example 122, 7-((S)-4-acryloyl-2-methylpiperazin-1-yl)-9-chloro-10-(2,4-difluorophenyl)-3-((4-ethylpiperazin-1-yl)methyl)-2,3-dihydro-5H-[1,4]thiazino[2,3,4-ij]quinazolin-5-one] | –
18 | 55 | – | C=CC(=O)N1C[C@H](C)N(c2nc(=O)n3c4c(c(-c5cc(Cl)c(F)cc5F)c(Cl)cc24)SC[C@@H]3CN2CCn3c(nnc3C(F)(F)F)C2)C[C@H]1C [Example 448, (3S)-7-((2S,5R)-4-acryloyl-2,5-dimethylpiperazin-1-yl)-9-chloro-10-(5-chloro-2,4-difluorophenyl)-3-((3-(trifluoromethyl)-5,6-dihydro-[1,2,4]triazolo[4,3-a]pyrazin-7(8H)-yl)methyl)-2H-[1,4]thiazino[2,3,4-ij]quinazolin-5(3H)-one] | –
19 | 98 | – | C=CC(=O)N1CCN(c2nc(=O)n3c4c(c(-c5ccc(F)cc5F)c(C(F)(F)F)cc24)SC[C@@H]3COC)CC1 (atropisomer, axis not shown) [Example 578, (3S,10R)-7-(4-acryloylpiperazin-1-yl)-10-(2,4-difluorophenyl)-3-(methoxymethyl)-9-(trifluoromethyl)-2,3-dihydro-5H-[1,4]thiazino[2,3,4-ij]quinazolin-5-one] | –
20 | – | 95.9 | C[C@H]1CN(C(=O)/C=C/C(F)F)CCN1c1nc(=O)n2c3c(c(-c4c(F)cc(F)cc4F)c(Cl)cc13)SCC2 [Example 120, (S,E)-9-chloro-7-(4-(4,4-difluorobut-2-enoyl)-2-methylpiperazin-1-yl)-10-(2,4,6-trifluorophenyl)-2,3-dihydro-5H-[1,4]thiazino[2,3,4-ij]quinazolin-5-one] | –
21 | – | – | C=CC(=O)N1CCN(c2nc(=O)n3c4c(c(-c5c(F)cc(F)cc5F)c(Cl)cc24)SC[C@H]3CC2CCN(C)CC2)[C@@H](C)C1 [Example 344, (R)-7-((S)-4-acryloyl-2-methylpiperazin-1-yl)-9-chloro-3-((1-methylpiperidin-4-yl)methyl)-10-(2,4,6-trifluorophenyl)-2H-[1,4]thiazino[2,3,4-ij]quinazolin-5(3H)-one] | % CAF @ 10 μM, 1 h (10 μM, 1 h, Table 4): 94.8%

Row | Compound | % CAF @ 10 uM, 1h (10 uM compound, 1 h incubation) [%] | % CAF @ 10 uM, 1h (10 uM, 1 h, Table 3) [%] | further results
22 | C=CC(=O)N1C2CSCC1CN(c1nc(=O)n3c4c(c(-c5ccc(F)cc5F)c(Cl)cc14)SCC3)C2 [Example 129, 7-(9-acryloyl-3-thia-7,9-diazabicyclo[3.3.1]nonan-7-yl)-9-chloro-10-(2,4-difluorophenyl)-2,3-dihydro-5H-[1,4]thiazino[2,3,4-ij]quinazolin-5-one] | – | 95.3 | –
23 | C=CC(=O)N1CCN(c2nc(=O)n3c4c(c(-c5cc(Cl)c(F)cc5F)c(C(F)(F)F)cc24)SC[C@@H]3COCOC)[C@@H](C)C1 (atropisomer, axis not shown) [Example 552, (3S,10R)-7-((S)-4-acryloyl-2-methylpiperazin-1-yl)-10-(5-chloro-2,4-difluorophenyl)-3-((methoxymethoxy)methyl)-9-(trifluoromethyl)-2,3-dihydro-5H-[1,4]thiazino[2,3,4-ij]quinazolin-5-one] | 62.2 | – | –
